{
  "source": "patent US20160007606A1",
  "about": "“MICROBIOCIDAL PYRAZOLE DERIVATIVES” (SYNGENTA PARTICIPATIONS AG, priority 2012, published 2016)",
  "data": [
    {"smiles": "Cc1cc(C(F)(F)F)nn1CC(=O)N1CCN(c2nc(C3=NOC(c4c(F)cccc4F)C3)cs2)CC1C(=O)O", "note": "(stereo not shown)", "values": [
      {"measurement": "melting point", "result": "178 to 185", "unit": "°C"}
    ]}
  ]
}
